Assay results published in patent US20110097332A1, “Composition and Method of Use for HCV Immunization” (priority 2007, published 2011).
Entries after “also recorded” stand apart in the source; their conditions may differ. Where two headings read alike, the source gives them in different places. Primed or numbered codes have the meaning given here. FITC′ = not defined here

B1: cyclin G, endogenous, in primary mouse hepatocytes (other)
chain: MIEVLTTDSQKLLHQLNTLLEQESRCQPKVCGLKLIESAHDNGLRMTARLRDFEVKDLLSLTQFFGFDTETFSLAVNLLDRFLSKMKVQAKHLGCVGLSCFYLAVKATEEERNVPLATDLIRISQYRFTVSDLMRMEKIVLEKVCWKVKATTAFQFLQLYYSLVHDTLPFERRNDLNFERLEAQLKACHCRIIFSKAKPSVLALSILALEIQALKYVELTEGVECIQKHSKISGRDLTFWQELVSKCLTEYSSNKCSKPNGQKLKWIVSGRTARQLKHSYYRITHLPTIPETIC

Key:
HCV E2 = experiment: in vitro phosphorylation assay of AP50 by recombinant E2 (cell-free, 32P ATP); type: biochemical; conditions: peptide added to the phosphorylation assay
Method: AP50 was immunopurified from untransfected primary hepatocytes and subjected to heat inactivation of any associated kinases. Recombinant wild type or mutated E2 were combined with AP50 in the presence of ^32P ATP (MP Biomedicals cat. #35020) and kinase buffer (50 mM Tris-HCL, pH 7.5, 5 mM MgCl2). The reaction was incubated at room temperature for 1 hour, and run on an SDSPAGE, transferred to a membrane and exposed to film overnight, as described previously (8; 57; 63).

[1] = system: HCV genotypes 1, 3, and 4; experiment: HCV infection/replication in primary human hepatocytes, HCV RNA by RT-PCR; type: cell-based
From the text: (§1) Hepatocytes were obtained (from Tissue Transformation Technologies [Edison, N.J.]) from anonymous organ donors without liver disease that were not suitable for liver transplantation for technical but not medical reasons. These donors are negative For Hepatitis A, B and C, CMV, HIV, HTLV ½, and RPR-STS. Hepatocytes cultures with >5% apoptosis by annexin-V assays and/or increases >3-fold in ALT were discarded.
Hepatocytes were isolated from an encapsulated liver sample by a modified two-step perfusion technique introduced by Seglen (63). Briefly, the dissected lobe was placed into a custom-made perfusion apparatus and two to five hepatic vessels were cannulated with tubing attached to a multi-channel manifold. A liver fragment (150 to 500 g) was perfused initially (recirculation technique) with calcium-free HBSS supplemented with 0.5 mM EGTA for 20 to 30 min and then with 0.05% collagenase [Sigma] dissolved in L-15 medium (with calcium) at 37° C. until the tissue was fully digested. The digested liver was removed, immediately cooled with ice-cold L-15 medium and the cell suspension was strained through serial progressively smaller stainless steel sieves, with a final filtration through 100-micron and 60-micron nylon mesh. The filtered cell suspension was aliquoted into 250-ml tubes and centrifuged three times at 40 g for 3 min at 4° C. […]

[2] = system: HCV-infected primary human hepatocytes; experiment: cell toxicity (LDH in medium) of HCV-infected primary human hepatocytes; type: cell-based
Method: Toxicity of HCV E2 mutants to human hepatocyte cultures was determined by measuring lactic dehydrogenase (LDH) (Sigma) and alanine aminotransferase (ALT) (Weiner Laboratories) in the medium. Positive (Jo2 Ab) and negative (untreated cells) control samples were determined in parallel. LDH assays of culture media were measurements of cellular leakage that indicates cell injury. ALT was enriched in hepatocytes and it's presence in serum or cell culture media was a classic indicator of hepatocyte injury. Indeed, it is the FDA's gold standard for hepatocellular toxicity.

[3] = system: HCV-infected primary human hepatocytes; experiment: cell permeability and co-localization with E2 in HCV-infected primary human hepatocytes (immuno-staining, FITC tag); type: cell-based
From the text: as §1
Hepatocytes were isolated from an encapsulated liver sample by a modified two-step perfusion technique introduced by Seglen (63). Briefly, the dissected lobe was placed into a custom-made perfusion apparatus and two to five hepatic vessels were cannulated with tubing attached to a multi-channel manifold. A liver fragment (150 to 500 g) was perfused initially (recirculation technique) with calcium-free HBSS supplemented with 0.5 mM EGTA for 20 to 30 min and then with 0.05% collagenase [Sigma] dissolved in L-15 medium (with calcium) at 37° C. until the tissue was fully digested. The digested liver was removed, immediately cooled with ice-cold L-15 medium and the cell suspension was strained through serial progressively smaller stainless steel sieves, with a final filtration through 100-micron and 60-micron nylon mesh. The filtered cell suspension was aliquoted into 250-ml tubes and centrifuged three times at 40 g for 3 min at 4° C. After the last centrifugation, the cells were re-suspended, in HypoThermosol-FRS [BioLife Solutions, Inc] combined in one tube and placed on ice.
Cells were centrifuged at 700 rpm for 5 min at 4° C., the supernatant was removed and the cells were washed with Hanks Wash Solution ([…] KCl 0.4 g/l; 4.4 mM KH2PO 0.06 g/l; […] NaCl 8 g/l; 3.4 mM Na2HPO4 0.048 g/l; 20 μL CaCl2 (2M)) three times. […]
Fluorescent labels were observed using a triple-channel fluorescence microscope or a laser scanning confocal microscope. […] At least 100 cells were analyzed per experimental point (9). The nuclear morphology was analyzed by staining cells with TOPRO-3 (R&D Systems).

E2 = experiment: binding of the mutant AP50 peptide to E2; set-up: species or system HCV
HCV E2 Y228F mutant = HCV E2 Y228F mutant (hepatitis C virus (HCV), UniProt P26664 384-746, Y228F); experiment: co-immunopurification with anti-cyclin G antibodies, primary mouse hepatocytes
HCV E2 Y228E mutant = HCV E2 Y228E mutant (hepatitis C virus (HCV), UniProt P26664 384-746, Y228E); experiment: as above
[4] = listed as dominant negative peptide of the AP50 phospho-acceptor
[5] = primary hepatocyte infection system

Molecule | auto-phosphorylation of E2 (HCV E2) | phosphorylation of AP50 by recombinant E2 (E2 kinase activity) (HCV E2; [4]) | phosphorylation of AP50 by recombinant E2 (E2 kinase activity) (HCV E2; listed as dominant negative peptide of the E2 consensus phosphorylation site) | phosphorylation of AP50 by recombinant E2 (E2 kinase activity) (HCV E2; listed as mutant AP50 peptide) | HCV replication (HCV RNA by RT-PCR) ([1]; peptide added at the time of HCV infection, genotypes 1, 3, and 4) | HCV infection [1, 5] | toxicity at termination of the experiment ([2]; 120 hours, in the presence of the peptide) | LDH levels (hepatocyte toxicity) ([2]; peptide added to the media at 72 hours post HCV infection) | hepatocyte toxicity induced by the peptide [2, 5] | cell permeability [3] | co-localization / association with HCV E2 [3] | co-localization / association with HCV E2 [3, 4] | binding to E2 (E2) | binding result (HCV E2 Y228F mutant) | binding result (HCV E2 Y228E mutant)
NH2-QGEVQRRRQRRKKRGYGGGG-FITC (H-QGEVQRRRQRRKKRGYGGGG-{FITC′}) [AP50 peptide] | unaffected | blocks the in vitro kinase activity of E2 | blocked | able to block the phosphorylation of AP50 by recombinant E2 in vitro; also recorded: blocks AP50 phosphorylation by E2 | inhibits HCV replication of genotypes 1, 3, and 4 | inhibits HCV infection | comparable to that of uninfected cells | LDH levels began to decrease | without inducing hepatocyte toxicity | cell permeable | co-localized with HCV E2 | associates with E2 | high affinity | – | –
B1 | – | – | – | – | – | – | – | – | – | – | – | – | – | no binding | no binding
